Data taken from patent US20080300235A1, “FXR Agonists for Reducing LOX-1 Expression” (Wyeth, priority 2007, published 2008).

How the values were obtained:
LOX-1 [1] = test: Hepatic LOX-1 mRNA expression in LDLR-/- mice fed a western diet; format: in vivo, mouse; conditions: liver, LDLR-/- (LDLRKO) mice, western diet 7 days, increasing concentrations of compound, FIG. 1
Description: (§1) Since LOX-1 is regulated by oxLDL, LOX-1 mRNA expression was monitored in liver from LDLR−/− (LDLRKO) mice fed a western diet for 7 days.

VCAM-1 [2] = test: Expression of LOX-1 target gene VCAM-1 (FIG. 2); format: in vivo, mouse
CD36 = test: Expression of oxLDL hepatic scavenger receptor CD36 (FIG. 3); format: in vivo, mouse; conditions: specificity control
Description: as §1
Importantly, the regulation of LOX-1 by FXR was specific, since expression of another oxLDL hepatic scavenger receptor, CD36, was not affected by compound A (FIG. 3).

LOX-1 [3] = test: LOX-1 expression in liver and kidney of diabetic KKAy mice; format: in vivo, mouse
Protocol: To determine whether FXR agonists could block LOX-1 gene expression under other settings, the regulation of LOX-1 by FXR was studied in the diabetic mouse strain, KKAy. […] The renal regulation of LOX-1 was also determined since FXR is also expressed in the kidney.

soluble LOX-1 (sLOX-1) = test: Serum soluble LOX-1 (sLOX-1) by ELISA based assay in mouse strains; format: in vivo; conditions: FIG. 5B
Description: Moreover, the expression of soluble LOX-1 (sLOX-1) in the serum was also monitored using an ELISA based assay after Compound A treatment. […] (FIG. 5B).

LOX-1 [4] = test: Hepatic LOX-1 gene expression by real-time PCR in FXR KO or wildtype mice; format: in vivo, mouse; conditions: male FXR KO or wildtype mice, chow diet with 0.5% chenodeoxycholic acid (CA), 30 mpk orally daily 7 days, FIG. 6
Protocol: (§2) Male FXR deficient (FXR KO) or wildtype mice on a chow diet supplemented with 0.5% chenodeoxycholic acid (CA) were treated orally daily with 30 mpk of Compound A for 7 days, and hepatic gene expression of LOX-1 and VCAM-1 was determined by real-time PCR.

VCAM-1 [5] = test: Hepatic VCAM-1 gene expression by real-time PCR in FXR KO or wildtype mice; format: in vivo, mouse; conditions: male FXR KO or wildtype mice, chow diet with 0.5% chenodeoxycholic acid (CA), 30 mpk orally daily 7 days, FIG. 6
Protocol: as §2

Question: For `CC(C)OC(=O)C1=CN(C(=O)c2ccc(F)c(F)c2)CC(C)(C)c2c1[nH]c1ccccc21` [Compound A, isopropyl 3-(3,4-difluorobenzoyl)-1,1-dimethyl-1,2,3,6-tetrahydroazepino[4,5-b]indole-5-carboxylate], which “LOX-1 mRNA induction by the western diet” value (LOX-1 [1]) is on record?
Answer: dose dependently inhibited

Question: What about the “VCAM-1 (LOX-1 target gene) expression” value (VCAM-1 [2]) of the same molecule?
Answer: significantly inhibited

Question: And the CD36 expression (CD36)?
Answer: not affected

Question: And the “hepatic LOX-1 expression” value (LOX-1 [3]; chow diet, 7 days treatment, FIG. 4A)?
Answer: significant repression

Question: What about the “renal LOX-1 expression” value (LOX-1 [3]; kidney, FIG. 4B) of the same molecule?
Answer: significantly inhibited

Question: And the “sLOX-1 reduction in FXR KO mouse strain” value (soluble LOX-1 (sLOX-1); FXR KO mouse strain)?
Answer: dependent upon FXR

Question: What about the “serum sLOX-1” value (soluble LOX-1 (sLOX-1); various mouse strains, high fat diet, 30 mpk orally daily for 7 days) of the same molecule?
Answer: significantly reduced

Question: And the “inhibition of hepatic LOX-1 gene expression, FXR KO vs wildtype” value (LOX-1 [4])?
Answer: dependent upon FXR

Question: And the “inhibition of hepatic VCAM-1 gene expression, FXR KO vs wildtype” value (VCAM-1 [5])?
Answer: dependent upon FXR
